Measured values taken from US20250009830A1 (priority 2021, published 2025).
Where two headings read alike, the source gives them in different places.

Columns and labels:
Experiment in all cases: microbe, parasite or virus in culture
Type in all cases: cell-based
Details in all cases: read-out: IC50 of the main compounds of EC 3.2
[1] = test system: SARS-CoV-2 Wuhan type (SARS-CoV-2PR-1)
[2] = test system: SARS-CoV-2 Beta
[3] = test system: SARS-CoV-2 Alpha
[4] = test system: SARS-CoV-2 Delta
[5] = test system: SARS-CoV-2 Omicron
[6] = test system: SARS-CoV-2 Gamma
[7] = Severe acute respiratory syndrome coronavirus 2, Calu-3, calculated from EC 3.2 IC50 and HPLC analysis (Table 4)
[8] = Calu-3, calculated from EC 3.2 IC50 and HPLC analysis (Table 4)

Compound	IC50 [1, 7] [µM]	IC50 [2, 7] [µM]	IC50 [3, 7] [µM]	IC50 [4, 7] [µM]	IC50 [5, 7] [µM]	IC50 [6, 7] [µM]	IC50 [1, 8] [µM]	IC50 [2, 8] [µM]	IC50 [3, 8] [µM]	IC50 [4, 8] [µM]	IC50 [5, 8] [µM]	IC50 [6, 8] [µM]
O=C(/C=C/c1ccc(O)c(O)c1)O[C@@H]1C[C@](O)(C(=O)O)C[C@@H](O)[C@H]1O [Chlorogenic acid]	6.6	20	27	13	13	20						
OC[C@H]1O[C@@H](Oc2cc3c(O)cc(O)cc3[o+]c2-c2ccc(O)c(O)c2)[C@H](O)[C@@H](O)[C@@H]1O [Cyanidin-3-glucoside]							41	123	165	82	82	123
OC[C@H]1O[C@@H](Oc2cc(O)cc3[o+]c(-c4ccc(O)c(O)c4)c(O[C@@H]4O[C@H](CO)[C@@H](O)[C@H](O)[C@H]4O[C@@H]4OC[C@@H](O)[C@H](O)[C@H]4O)cc23)[C@H](O)[C@@H](O)[C@@H]1O [Cyanidin-3-sambubioside-5-glucoside]							6	18	24	12	12	18
OC[C@H]1O[C@@H](Oc2cc3c(O)cc(O)cc3[o+]c2-c2ccc(O)c(O)c2)[C@H](O[C@@H]2OC[C@@H](O)[C@H](O)[C@H]2O)[C@@H](O)[C@@H]1O [Cyanidin-3-sambubioside]							35	107	142	71	71	107
O=c1c(O[C@@H]2O[C@H](CO)[C@@H](O)[C@H](O)[C@H]2O)c(-c2ccc(O)c(O)c2)oc2cc(O)cc(O)c12 [Isoquercitrin]	1.3	4	5.4	2.7	2.7	4						
C[C@@H]1O[C@@H](OC[C@H]2O[C@@H](Oc3c(-c4ccc(O)c(O)c4)oc4cc(O)cc(O)c4c3=O)[C@H](O)[C@@H](O)[C@@H]2O)[C@H](O)[C@H](O)[C@H]1O [Rutin]	17	51	68	34	34	51						
